Test results reported in US20250295649A1, “METHOD FOR PROMOTING ELONGATION OF LONG BONE DURING CHILDHOOD TO ADOLESCENCE BY GPER-1 ACTIVATION VARIANT” (Kaohsiung Medical University, priority 2024, published 2025).

Columns and labels:
mice = experiment: Growth plate cartilage structure in mice, Safranin O staining; format: in vivo; settings: subcutaneous injection from 2 weeks old
Method: From 2 weeks old, mice are administered GPER-1 agonists at concentrations of 10^−8 g/kg, 10^−6 g/kg, and 10^−4 g/kg through subcutaneous injection to activate GPER-1. Safranin O staining is employed to label cartilage tissue for the analysis of growth plate cartilage structure. The growth plate cartilage is categorized into the resting zone (RZ), proliferation zone (PZ), and hypertrophy zone (HZ).

epiphyseal chondrocytes = experiment: BrdU proliferation in ex vivo cultured epiphyseal cartilage of 4-day-old rats; format: cell-based; settings: for proliferation of epiphyseal chondrocytes (BrdU): ex vivo rat epiphyseal cartilage
Method: After taking out the cultured epiphyseal cartilage from 4-day-old rats and culturing them ex vivo, the cartilage tissues are given GPER-1 agonists at concentrations of 0.1, 0.5, 1, and 2 μM to activate the GPER-1 of chondrocytes. Subsequently, the amount of proliferating cells in living cells is detected using Bromodeoxyuridine (5-bromo-2′-deoxyuridine, BrdU).

Structure (SMILES): CC(=O)c1ccc2c(c1)[C@H]1C=CC[C@H]1[C@@H](c1cc3c(cc1Br)OCO3)N2 (racemic) [GPER-1 agonist, (±)-1-[(3aR*,4S*,9bS*)-4-(6-Bromo-1,3-benzodioxol-5-yl)-3a,4,5,9b-tetrahydro-3H-cyclopenta[c]quinolin-8-yl]-ethenone]
- thickness of the proliferative zone of the growth plate (mice; 10^−4 g/kg): effectively promote
- thickness of the whole growth plate (mice; 10^−4 g/kg): effectively promote
- thickness of the proliferative zone of the growth plate (mice; 10^−6 g/kg): effectively promote
- thickness of the whole growth plate (mice; 10^−6 g/kg): effectively promote
- proliferation of rat chondrocytes (epiphyseal chondrocytes; concentrations ranging from 0.1 to 1 μM (summary statement)): can promote
- proliferation of epiphyseal chondrocytes (BrdU) (epiphyseal chondrocytes; 0.1 μM): significantly promote
- proliferation of epiphyseal chondrocytes (BrdU) (epiphyseal chondrocytes; 0.5 μM): significantly promote
